Assay results as given in PMC8439235, “High-yield synthesis and purification of recombinant human GABA transaminase for high-throughput screening assays” (Journal of Enzyme Inhibition and Medicinal Chemistry, 2021).
Read-outs that look alike come from different tables or passages of the source.

Experiments:
recombinant human GABA-T = biological target: T1, recombinant human GABA-T (Homo sapiens, UniProt P80404); experiment: GABA-T inhibition assay, coupled with SSADH, NADPH absorbance at 340 nm (Mixture C); format: biochemical; details: for IC50: IC50 for human GABA-T, 10 min preincubation, 25 °C, pH 8.6, 200 µM GABA
T1 construct: made in house; host or cells: Expi293F human cells, transient transfection
T1 sequence (P80404 29-500): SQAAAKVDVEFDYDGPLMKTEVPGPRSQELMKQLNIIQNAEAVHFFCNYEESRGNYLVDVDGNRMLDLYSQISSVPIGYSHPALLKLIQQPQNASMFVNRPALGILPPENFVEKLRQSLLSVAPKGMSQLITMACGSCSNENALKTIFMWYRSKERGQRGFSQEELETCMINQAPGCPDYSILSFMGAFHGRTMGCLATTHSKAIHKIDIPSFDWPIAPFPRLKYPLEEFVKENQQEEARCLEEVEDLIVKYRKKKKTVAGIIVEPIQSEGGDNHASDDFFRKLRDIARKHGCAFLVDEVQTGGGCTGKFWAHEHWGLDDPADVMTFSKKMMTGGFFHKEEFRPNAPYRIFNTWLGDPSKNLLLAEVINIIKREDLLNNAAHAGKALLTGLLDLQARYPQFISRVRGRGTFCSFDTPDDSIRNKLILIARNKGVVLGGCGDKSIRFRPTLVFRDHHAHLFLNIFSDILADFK
Description: (§1) All test samples were prepared at a final volume of 200 µl/well in a 96-well plate with a clear flat bottom, and the enzyme reaction was carried out at 25 °C. The final solution of the assay in Figure 3(B) consisted of SSA (0, 12.5, 25, 50, 100, and 200 µM), 2.5 mM β-NADP^+, 1 mM 2-mercaptoethanol (2-ME), and SSADH (from 20 µL of 1 U/mL gabaculine-treated GABase) in 50 mM K4P2O7 buffer (pH 8.6). The final solution of the assay in Figure 3(C) consisted of GABA (0, 100 and 200 µM), 2.5 mM β-NADP^+, 5 mM α-KG, 1 mM 2-ME and each enzymatic mixture (Mixture A: 10 µL of 1 U/mL GABase; Mixture B: 10 µL of 1 U/mL gabaculine-treated GABase; Mixture C: 2 µg of human GABA-T mixed with 10 µL of 1 U/mL gabaculine-treated GABase) in 50 mM K4P2O7 buffer at pH 8.6. The final solution of the assay in Figure 3(D) consisted of 200 µM GABA, 2.5 mM β-NADP^+, 5 mM α-KG, 1 mM 2-ME, SSADH (from Mixture B) and human GABA-T at various concentrations (0.156, 0.313, 0.625, 1.25, 2.5, 5, and 10 µg/mL) in 50 mM K4P2O7 buffer at pH 8.6. […] The final solution of the assay in Figure 4(A) consisted of gabaculine (0, 15.63, 31.25, 62.5, 125, 250, 500, and 1000 nM), 200 µM GABA, 2.5 mM β-NADP^+, 5 mM α-KG, and each enzymatic mixture (A or C) in 50 mM K4P2O7 buffer (pH 8.6) containing or not containing 1 mM 2-ME. […] The change in 340 nm absorbance at 25 °C caused by the conversion of NADP^+ to NADPH, which is proportional to GABA-T activity, was recorded every 4 min kinetically with SpectraMax iD5 Multi-Mode Microplate Reader (Molecular Devices). GABA-T activity was calculated during the linear phase of the reaction, corrected for background from blanks. All experiments were performed in triplicate and data were presented as mean ± SEM (Standard Error of Mean) or each replicate. Data plotting and regression analysis were performed with GraphPad Prism software (Version 9.1.2, GraphPad Software).

bacterial GABA-T = biological target: T2, bacterial GABA-T (Pseudomonas fluorescens, UniProt Q4KKA1); experiment: GABA-T inhibition assay with GABase, NADPH absorbance at 340 nm (Mixture A); format: biochemical; details: for IC50: 10 min preincubation, 25 °C, pH 8.6, 200 µM GABA
T2 sequence (Q4KKA1 1-425): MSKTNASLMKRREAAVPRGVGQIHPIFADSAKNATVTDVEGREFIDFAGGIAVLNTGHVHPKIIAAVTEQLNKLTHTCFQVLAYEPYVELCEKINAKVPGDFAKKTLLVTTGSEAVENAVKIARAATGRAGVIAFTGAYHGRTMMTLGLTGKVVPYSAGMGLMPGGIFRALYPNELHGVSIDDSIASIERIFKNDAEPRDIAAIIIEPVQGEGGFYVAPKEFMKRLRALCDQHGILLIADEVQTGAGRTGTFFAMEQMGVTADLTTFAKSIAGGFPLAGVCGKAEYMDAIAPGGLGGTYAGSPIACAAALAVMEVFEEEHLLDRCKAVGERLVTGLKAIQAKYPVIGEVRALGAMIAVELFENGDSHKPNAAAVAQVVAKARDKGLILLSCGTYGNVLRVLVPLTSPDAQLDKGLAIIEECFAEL
Description: GABase (Merck, G7509) is a convenient and inexpensive source of SSADH, as it is a commercially available mixture composed of bacterial GABA-T and SSADH obtained from Pseudomonas fluorescens. However, GABase was not able to be used directly in our human GABA-T assay due to the presence of bacterial GABA-T. So we used the bacterial SSADH isolation method as previously described, which allowed large amounts of bacterial SSADH to be isolated quickly and conveniently from GABase by irreversibly inhibiting the bacterial GABA-T activity. Five milligrams of gabaculine (Santa Cruz Biotechnology, sc-200473), a naturally occurring GABA-T irreversible inhibitor, was added to 25 ml of 1 U/mL GABase solution (reconstituted with 50 mM K4P2O7 buffer at pH 8.6), followed by maintaining the reaction at 4 °C for 30 min. The residual gabaculine, which also can inactivate recombinant human GABA-T, was eliminated by dialysis at 4 °C with 2 L of K4P2O7 buffer, changed 3 times per 9 h followed by the final dialysis overnight. The isolated bacterial SSADH was stored at −80 °C for long-term storage.
as §1

Row | Structure (SMILES) | IC50 (recombinant human GABA-T; absence of 2-ME (homodimeric/multimeric form)) [µM] | IC50 (recombinant human GABA-T; presence of 1 mM 2-ME (monomeric form)) [µM] | GABA degradation-dependent NADPH synthesis in GABase after treatment (bacterial GABA-T; 5 mg gabaculine in 25 ml of 1 U/mL GABase, 4 °C, 30 min, then dialysis, GABA 0, 100, 200 µM) | IC50 (bacterial GABA-T; IC50 for bacterial GABA-T, absence of 2-ME (multimeric form)) [µM] | IC50 (bacterial GABA-T; IC50 for bacterial GABA-T, presence of 1 mM 2-ME (monomeric form)) [µM] | difference in sensitivity, human vs bacterial GABA-T (recombinant human GABA-T; with 2-ME, monomeric form) [fold] | difference in sensitivity, human vs bacterial GABA-T (recombinant human GABA-T; without 2-ME, human homodimeric vs bacterial multimeric form) [fold] | IC50 (bacterial GABA-T; absence of 2-ME (multimeric form), read-out: IC50 for bacterial GABA-T) [µM] | IC50 (bacterial GABA-T; presence of 1 mM 2-ME (monomeric form), read-out: IC50 for bacterial GABA-T) [µM]
1 | NC1C=CC=C(C(=O)O)C1 (stereo not drawn) [gabaculine] | 0.22 | 0.12 | completely impaired | 0.19 | 0.13 | – | – | – | –
2 | C=CC(N)CCC(=O)O (stereo not drawn) [vigabatrin] | – | – | – | – | – | 202 | 70 | 631 | 14200
